Measurements from ChEMBL document CHEMBL1201862, “PubChem BioAssay data set” (2004).
The source made the active and inactive calls.

How the values were obtained:
Assay type in all cases: functional
[1] = target: T1, Apoptotic protease-activating factor 1 (Homo sapiens, UniProt O14727)
T1 sequence (O14727 whole entry): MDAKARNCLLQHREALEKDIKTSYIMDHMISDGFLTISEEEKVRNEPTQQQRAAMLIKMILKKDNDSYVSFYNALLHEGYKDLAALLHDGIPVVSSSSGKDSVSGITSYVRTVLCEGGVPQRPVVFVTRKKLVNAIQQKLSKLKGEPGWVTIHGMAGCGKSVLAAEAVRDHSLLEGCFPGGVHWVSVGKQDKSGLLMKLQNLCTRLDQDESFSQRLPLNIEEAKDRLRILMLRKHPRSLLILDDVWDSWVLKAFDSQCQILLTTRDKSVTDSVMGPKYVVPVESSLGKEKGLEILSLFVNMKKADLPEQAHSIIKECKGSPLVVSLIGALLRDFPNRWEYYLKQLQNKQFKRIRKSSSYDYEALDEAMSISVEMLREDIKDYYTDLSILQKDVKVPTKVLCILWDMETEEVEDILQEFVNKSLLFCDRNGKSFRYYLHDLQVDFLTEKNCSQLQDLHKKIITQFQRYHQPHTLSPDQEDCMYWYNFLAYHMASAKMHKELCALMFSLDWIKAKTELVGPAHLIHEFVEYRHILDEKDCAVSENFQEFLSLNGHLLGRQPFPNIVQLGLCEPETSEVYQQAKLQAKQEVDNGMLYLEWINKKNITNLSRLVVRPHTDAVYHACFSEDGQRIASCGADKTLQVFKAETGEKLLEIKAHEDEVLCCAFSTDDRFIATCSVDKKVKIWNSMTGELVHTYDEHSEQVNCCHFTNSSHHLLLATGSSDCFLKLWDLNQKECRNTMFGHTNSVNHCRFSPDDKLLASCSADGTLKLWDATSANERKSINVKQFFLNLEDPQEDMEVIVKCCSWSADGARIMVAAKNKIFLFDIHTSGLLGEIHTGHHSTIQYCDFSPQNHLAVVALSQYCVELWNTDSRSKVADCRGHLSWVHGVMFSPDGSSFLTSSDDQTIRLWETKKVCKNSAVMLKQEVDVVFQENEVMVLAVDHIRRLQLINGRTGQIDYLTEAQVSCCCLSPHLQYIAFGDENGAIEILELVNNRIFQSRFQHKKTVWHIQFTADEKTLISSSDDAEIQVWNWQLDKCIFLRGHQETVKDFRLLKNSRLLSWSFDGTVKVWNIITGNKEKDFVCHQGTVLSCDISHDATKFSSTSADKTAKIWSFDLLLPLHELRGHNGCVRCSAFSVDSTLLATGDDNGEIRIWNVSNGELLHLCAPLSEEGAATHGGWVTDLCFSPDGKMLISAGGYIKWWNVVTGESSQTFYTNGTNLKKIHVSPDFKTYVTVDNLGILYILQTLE

[2] = target: Dual specificity mitogen-activated protein kinase kinase 1 (Homo sapiens, UniProt Q02750); test: Navigating the Kinome. Panel member name: MAP2K1
Sequence of Dual specificity mitogen-activated protein kinase kinase 1 (Q02750 whole entry): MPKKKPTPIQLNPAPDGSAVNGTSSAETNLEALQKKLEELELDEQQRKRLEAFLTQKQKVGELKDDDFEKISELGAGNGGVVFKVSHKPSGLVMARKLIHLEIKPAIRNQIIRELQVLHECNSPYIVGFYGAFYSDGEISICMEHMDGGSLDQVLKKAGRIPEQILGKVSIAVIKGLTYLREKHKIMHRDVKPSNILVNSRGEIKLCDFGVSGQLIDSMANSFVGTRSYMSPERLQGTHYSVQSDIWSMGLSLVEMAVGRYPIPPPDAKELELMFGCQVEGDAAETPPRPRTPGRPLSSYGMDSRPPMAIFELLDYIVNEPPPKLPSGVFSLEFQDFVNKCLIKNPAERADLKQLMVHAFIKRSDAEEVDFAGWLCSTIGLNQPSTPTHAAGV

[3] = target: cGMP-dependent protein kinase 1 (Homo sapiens, UniProt Q13976);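 further: value from a kinome panel screen with PRKG1 as the panel member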
[4] = target: Serine/threonine-protein kinase PLK3 (Homo sapiens, UniProt Q9H4B4)
Sequence of Serine/threonine-protein kinase PLK3 (Q9H4B4 whole entry): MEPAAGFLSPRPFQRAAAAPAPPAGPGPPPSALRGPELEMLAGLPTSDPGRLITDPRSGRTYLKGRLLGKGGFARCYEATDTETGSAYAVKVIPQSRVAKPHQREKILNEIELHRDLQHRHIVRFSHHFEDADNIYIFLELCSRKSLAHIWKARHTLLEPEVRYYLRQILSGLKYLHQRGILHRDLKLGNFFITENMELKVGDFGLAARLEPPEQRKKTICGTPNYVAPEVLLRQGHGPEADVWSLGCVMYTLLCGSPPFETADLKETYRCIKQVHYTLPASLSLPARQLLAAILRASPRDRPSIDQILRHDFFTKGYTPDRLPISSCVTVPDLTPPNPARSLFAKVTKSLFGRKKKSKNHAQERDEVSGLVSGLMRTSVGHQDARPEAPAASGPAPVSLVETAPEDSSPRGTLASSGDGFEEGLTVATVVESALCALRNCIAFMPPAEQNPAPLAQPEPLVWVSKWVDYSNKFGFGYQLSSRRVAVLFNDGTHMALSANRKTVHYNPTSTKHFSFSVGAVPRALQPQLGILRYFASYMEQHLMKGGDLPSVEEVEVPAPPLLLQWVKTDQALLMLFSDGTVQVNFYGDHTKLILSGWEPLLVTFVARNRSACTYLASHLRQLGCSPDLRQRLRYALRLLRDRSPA

[5] = target: Ribosomal protein S6 kinase beta-1 (Homo sapiens, UniProt P23443);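 further: measured as one member of a kinome-wide profiling panel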
[6] = target: Serine/threonine-protein kinase D3 (Homo sapiens, UniProt O94806);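 further: determined within a kinase panel screen, with PRKCN as the panel member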
[7] = target: Testis-specific serine/threonine-protein kinase 2 (Homo sapiens, UniProt Q96PF2);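 further: part of the Navigating the Kinome panel, target entry STK22B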
[8] = target: Calcium/calmodulin-dependent protein kinase type II subunit delta (Homo sapiens, UniProt Q13557)
[9] = target: Tyrosine-protein kinase ITK/TSK (Homo sapiens, UniProt Q08881);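 further: affinity for ITK measured as one member of a broad kinase panel profiling binding across the kinome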
Sequence of Tyrosine-protein kinase ITK/TSK (Q08881 whole entry): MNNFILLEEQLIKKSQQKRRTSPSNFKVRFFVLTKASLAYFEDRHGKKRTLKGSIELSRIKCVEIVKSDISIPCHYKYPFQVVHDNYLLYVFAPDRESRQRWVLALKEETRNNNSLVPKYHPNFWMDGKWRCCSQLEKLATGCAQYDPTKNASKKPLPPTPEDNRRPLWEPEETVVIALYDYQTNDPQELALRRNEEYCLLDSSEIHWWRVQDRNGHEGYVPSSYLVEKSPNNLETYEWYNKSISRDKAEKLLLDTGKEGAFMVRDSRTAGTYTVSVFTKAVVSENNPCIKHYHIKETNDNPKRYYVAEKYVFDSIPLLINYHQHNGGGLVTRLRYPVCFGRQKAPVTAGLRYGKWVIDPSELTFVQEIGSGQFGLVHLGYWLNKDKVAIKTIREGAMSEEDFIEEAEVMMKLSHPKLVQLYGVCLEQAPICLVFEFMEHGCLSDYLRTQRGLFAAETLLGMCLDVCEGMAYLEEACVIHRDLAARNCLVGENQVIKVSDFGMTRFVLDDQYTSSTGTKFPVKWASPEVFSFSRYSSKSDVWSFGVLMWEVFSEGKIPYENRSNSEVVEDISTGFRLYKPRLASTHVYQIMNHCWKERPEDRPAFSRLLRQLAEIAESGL

[10] = target: Tyrosine-protein kinase Srms (Homo sapiens, UniProt Q9H3Y6);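 further: SRMS measured as one member of a kinome-wide kinase profiling panel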
Sequence of Tyrosine-protein kinase Srms (Q9H3Y6 whole entry): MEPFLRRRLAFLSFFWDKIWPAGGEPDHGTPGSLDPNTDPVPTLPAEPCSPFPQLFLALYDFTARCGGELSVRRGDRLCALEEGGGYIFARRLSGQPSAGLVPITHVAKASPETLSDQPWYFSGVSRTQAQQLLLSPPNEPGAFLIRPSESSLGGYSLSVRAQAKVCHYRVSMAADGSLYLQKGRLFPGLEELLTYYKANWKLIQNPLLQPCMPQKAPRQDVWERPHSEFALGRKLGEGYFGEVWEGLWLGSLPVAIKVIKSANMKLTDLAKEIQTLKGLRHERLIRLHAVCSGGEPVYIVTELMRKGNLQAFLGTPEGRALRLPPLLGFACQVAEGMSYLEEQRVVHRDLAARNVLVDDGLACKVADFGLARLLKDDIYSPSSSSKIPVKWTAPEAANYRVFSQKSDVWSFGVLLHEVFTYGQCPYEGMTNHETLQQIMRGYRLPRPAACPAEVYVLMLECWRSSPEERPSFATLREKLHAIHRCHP

[11] = target: MAP kinase-activated protein kinase 3 (Homo sapiens, UniProt Q16644);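 further: value comes from a kinome-wide profiling panel in which MAPKAPK3 is one of the panel members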
Sequence of MAP kinase-activated protein kinase 3 (Q16644 whole entry): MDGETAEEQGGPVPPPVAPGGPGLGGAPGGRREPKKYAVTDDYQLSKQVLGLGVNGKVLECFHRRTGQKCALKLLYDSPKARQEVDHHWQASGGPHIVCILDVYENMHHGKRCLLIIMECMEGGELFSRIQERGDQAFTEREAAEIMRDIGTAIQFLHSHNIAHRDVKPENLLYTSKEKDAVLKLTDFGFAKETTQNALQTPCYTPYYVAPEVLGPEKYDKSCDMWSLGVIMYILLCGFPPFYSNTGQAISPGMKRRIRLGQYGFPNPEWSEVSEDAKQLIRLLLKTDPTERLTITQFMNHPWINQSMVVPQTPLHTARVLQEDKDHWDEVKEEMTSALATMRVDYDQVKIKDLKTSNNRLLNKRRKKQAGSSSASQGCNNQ

Misshapen-like kinase 1 = Misshapen-like kinase 1 (Homo sapiens, UniProt Q8N4C8);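 further: kinome panel screen with MINK as the panel member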
[12] = target: Interleukin-1 receptor-associated kinase 1 (Homo sapiens, UniProt P51617);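 further: IRAK1 tested as one member of a kinome panel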
Sequence of Interleukin-1 receptor-associated kinase 1 (P51617 whole entry): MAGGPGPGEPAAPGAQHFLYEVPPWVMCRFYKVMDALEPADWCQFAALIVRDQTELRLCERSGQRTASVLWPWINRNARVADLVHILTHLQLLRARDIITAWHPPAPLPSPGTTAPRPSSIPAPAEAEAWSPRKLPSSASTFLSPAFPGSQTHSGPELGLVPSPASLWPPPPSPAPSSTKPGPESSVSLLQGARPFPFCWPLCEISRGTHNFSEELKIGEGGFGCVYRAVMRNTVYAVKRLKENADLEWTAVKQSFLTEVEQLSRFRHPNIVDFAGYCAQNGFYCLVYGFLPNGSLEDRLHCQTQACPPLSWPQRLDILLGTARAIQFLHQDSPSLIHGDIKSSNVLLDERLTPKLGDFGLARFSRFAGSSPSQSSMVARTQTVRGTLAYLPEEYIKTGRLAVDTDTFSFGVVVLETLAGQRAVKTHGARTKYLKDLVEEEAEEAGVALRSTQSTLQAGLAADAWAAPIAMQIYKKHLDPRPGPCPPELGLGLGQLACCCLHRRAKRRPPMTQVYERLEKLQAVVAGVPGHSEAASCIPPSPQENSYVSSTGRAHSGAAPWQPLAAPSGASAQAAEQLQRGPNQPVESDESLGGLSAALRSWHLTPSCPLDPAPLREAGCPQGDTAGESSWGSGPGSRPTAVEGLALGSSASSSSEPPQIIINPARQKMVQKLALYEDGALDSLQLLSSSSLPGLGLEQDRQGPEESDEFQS

[13] = target: Rho-associated protein kinase 1 (Homo sapiens, UniProt Q13464);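 further: measured within a broad kinome-wide panel profiling many kinases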
Sequence of Rho-associated protein kinase 1 (Q13464 whole entry): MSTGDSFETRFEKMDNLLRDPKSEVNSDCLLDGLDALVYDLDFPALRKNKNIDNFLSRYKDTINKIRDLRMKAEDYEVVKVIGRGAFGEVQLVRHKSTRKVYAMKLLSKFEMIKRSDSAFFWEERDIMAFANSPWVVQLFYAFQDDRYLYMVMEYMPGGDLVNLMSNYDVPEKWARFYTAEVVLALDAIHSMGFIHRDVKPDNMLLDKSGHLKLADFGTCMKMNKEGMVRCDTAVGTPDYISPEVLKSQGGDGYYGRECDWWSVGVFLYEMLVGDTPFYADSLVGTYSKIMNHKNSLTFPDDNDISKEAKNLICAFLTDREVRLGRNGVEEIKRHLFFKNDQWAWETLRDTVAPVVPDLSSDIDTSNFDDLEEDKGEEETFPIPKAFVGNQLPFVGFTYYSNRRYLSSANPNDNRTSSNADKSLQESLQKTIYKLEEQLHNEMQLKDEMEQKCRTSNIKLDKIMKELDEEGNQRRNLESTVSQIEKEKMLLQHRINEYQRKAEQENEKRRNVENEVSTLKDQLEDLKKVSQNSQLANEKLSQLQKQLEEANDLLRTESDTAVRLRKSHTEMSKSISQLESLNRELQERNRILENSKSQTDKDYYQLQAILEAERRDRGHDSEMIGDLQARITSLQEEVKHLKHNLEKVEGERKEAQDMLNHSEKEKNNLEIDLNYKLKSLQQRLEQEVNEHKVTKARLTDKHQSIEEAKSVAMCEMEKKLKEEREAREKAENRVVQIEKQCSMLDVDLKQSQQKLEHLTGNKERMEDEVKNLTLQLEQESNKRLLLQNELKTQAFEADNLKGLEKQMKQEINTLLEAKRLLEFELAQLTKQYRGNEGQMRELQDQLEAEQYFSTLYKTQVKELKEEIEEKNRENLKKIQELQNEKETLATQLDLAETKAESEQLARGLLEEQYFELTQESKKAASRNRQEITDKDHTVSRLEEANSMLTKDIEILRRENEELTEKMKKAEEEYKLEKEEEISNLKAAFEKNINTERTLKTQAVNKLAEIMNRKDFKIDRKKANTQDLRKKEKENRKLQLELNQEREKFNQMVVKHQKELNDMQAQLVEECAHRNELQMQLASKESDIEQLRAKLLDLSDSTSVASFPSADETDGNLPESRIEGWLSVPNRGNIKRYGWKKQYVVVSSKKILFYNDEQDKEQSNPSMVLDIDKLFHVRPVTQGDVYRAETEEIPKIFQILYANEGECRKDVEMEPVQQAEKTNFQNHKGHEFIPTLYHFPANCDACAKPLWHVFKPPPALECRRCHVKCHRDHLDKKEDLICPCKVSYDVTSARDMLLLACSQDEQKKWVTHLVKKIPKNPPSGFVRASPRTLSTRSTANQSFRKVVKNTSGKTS

[14] = target: Cyclin-dependent kinase 1 (Homo sapiens, UniProt P06493);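 further: Kinome-wide panel profiling, with the target listed as panel member CDC2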
[15] = target: Serine/threonine-protein kinase pim-2 (Homo sapiens, UniProt Q9P1W9);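 further: value comes from a broad kinase panel profiling study in which PIM2 was one of the panel members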
[16] = target: Cyclin-dependent kinase 7 (Homo sapiens, UniProt P50613);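 further: value comes from a kinome-wide kinase profiling panel in which CDK7 is one member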
Sequence of Cyclin-dependent kinase 7 (P50613 whole entry): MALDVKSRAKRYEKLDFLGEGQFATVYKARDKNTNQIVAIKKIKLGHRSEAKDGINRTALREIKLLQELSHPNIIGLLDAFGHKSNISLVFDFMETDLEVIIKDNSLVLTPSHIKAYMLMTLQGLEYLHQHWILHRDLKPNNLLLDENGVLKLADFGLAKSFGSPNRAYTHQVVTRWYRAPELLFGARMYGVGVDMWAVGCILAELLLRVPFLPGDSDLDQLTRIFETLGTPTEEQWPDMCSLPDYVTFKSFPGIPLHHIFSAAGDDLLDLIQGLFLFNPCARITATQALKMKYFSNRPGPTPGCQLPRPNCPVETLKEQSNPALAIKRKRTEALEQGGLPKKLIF

[17] = target: Lymphokine-activated killer T-cell-originated protein kinase (Homo sapiens, UniProt Q96KB5);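 further: value comes from a kinase panel screen in which TOPK was one of the panel members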
[18] = target: Mitogen-activated protein kinase kinase kinase 10 (Homo sapiens, UniProt Q02779); test: Navigating the Kinome. Panel member name: MAP3K10
[19] = target: Leukocyte tyrosine kinase receptor (Homo sapiens, UniProt P29376); test: Navigating the Kinome. Panel member name: LTK
[20] = cytotoxicity in MIN6 insulinoma cells, dose response, cytotoxicity control, cell-based, mouse insulinoma (AID 2122);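 further: confirmatory high-throughput counterscreen run to flag cytotoxic compounds; mouse MIN-6 beta cells carrying an insulin promoter eGFP reporter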
[21] = target: Induced myeloid leukemia cell differentiation protein Mcl-1 (Homo sapiens, UniProt Q07820)
Protein Tat = target: T2, Protein Tat (Human immunodeficiency virus type 1 group M subtype B (isolate HXB2)(HIV-1), UniProt P04608);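 further: tat binding to TAR RNA read out by fluorescence polarization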
T2 sequence (P04608 whole entry): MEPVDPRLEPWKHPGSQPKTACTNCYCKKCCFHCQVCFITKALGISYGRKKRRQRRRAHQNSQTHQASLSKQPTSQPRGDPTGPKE

CCOC(=O)c1c(NS(=O)(=O)c2ccccc2)n(CCCOC)c2nc3ccccc3nc12
IC50 [1]: 24.2 µM (active)

OC1CCC(Nc2cc(Cl)nc(-c3c[nH]c4ncccc34)n2)CC1 (stereo not drawn)
Ki [2]: 0.0316 µM (active)
Ki [3]: > 1.26 µM (inactive)
Ki [4]: 3.98 µM (active)
Ki [5]: 0.251 µM (active)
Ki [6]: 0.158 µM (active)
Ki [7]: > 1 µM (inactive)
Ki [8]: > 1.58 µM (inactive)
Ki [9]: > 1.58 µM (inactive)
Ki [10]: > 1.58 µM (inactive)
Ki [11]: > 10 µM (inactive)
Ki (Misshapen-like kinase 1): 0.00398 µM (active)
Ki [12]: 1.26 µM (active)
Ki [13]: 0.0316 µM (active)
Ki [14]: 1 µM (active)
Ki [15]: 0.251 µM (active)
Ki [16]: > 6.31 µM (inactive)
Ki [17]: 3.98 µM (active)
Ki [18]: 0.0794 µM (active)
Ki [19]: > 2.51 µM (inactive)

COCC/N=c1\scc(-c2cccs2)n1/N=C/c1ccc(O)c(O)c1O
IC50 [20]: > 16 µM (inactive)
IC50 [21]: 5.17 µM (active)
IC50 (Protein Tat): > 100 µM (inconclusive)
